{"source": "patent US8119564B2", "about": "“Herbicidal control using sulfentrazone and metsulfuron” (FMC Corporation, priority 2009, dated 2012)", "key": {"[1]": {"system": "ground ivy (Glechoma hederacea)", "assay": "Post-emergent herbicidal evaluation on turf plots, ground ivy control", "type": "in vivo", "experimental": "(§1) Test compositions containing sulfentrazone (Dismiss™ Turf Herbicide), metsulfuron methyl (BLADE™ Selective Herbicide For Turfgrass) and mixtures thereof, were diluted with water to provide the appropriate test rate concentrations.\n(§2) The size of each experimental turf plot was 5 feet by 10 feet. The application of each test composition was performed with a pressurized back-pack sprayer, calibrated to spray 30 gallons per acre. Three replications were made for each test rate along with an untreated control plot.\n(§3) Test weeds were about 3 inches tall at the time of treatment. Control of ground ivy (Glechoma hederacea) and field violet (Viola arvensis) was evaluated at 6, 14, 28, 40 and 55 days after treatment (DAT) for each test rate. In order t to provide a measure of the effectiveness of a herbicide's performance weed control ratings were based on visual observations of the presence or absence of various weeds or of symptoms (necrosis, wilting, curling of leaves, discoloration etc.) on weeds compared to lack of symptoms. Ratings are based on the 0 to 100 rating system, where 0 equals no control and 100 equals complete control, which generally makes use of direct-percentage figures. In this system the standard basis for comparison is an untreated weedy check. Counts are made of each weed species found in the untreated area of the study. This provides a basis to give a precise representation of both weed infestation and degree of control provided by various chemical treatments. Counts are made on randomly selected areas which are generally 1 square foot to 1 square yard in size. Ratings are made for each weed species found in the untreated treatments. For example, a random area in an untreated plot has 10 yellow nutsedge plants per square foot equaling 0% control. A treated plot has only 1 yellow nutsedge plant found in the randomly selected area equaling 90% control.\n(§4) Compositions of the present invention were tested for herbicidal efficacy in the manner of Example 1. Table A below summarizes the test data for ratios of sulfentrazone to metsulfuron methyl that are outside the scope of the present invention. The Colby equation expected values are also in Table A."}, "[2]": {"system": "field violet (Viola arvensis)", "assay": "Post-emergent herbicidal evaluation on turf plots, wild violet control", "type": "in vivo", "experimental": "as §1, §2, §3, §4"}, "[3]": {"conditions": "0.01 lb/ac, 6 DAT, NIS 0.25% V/V"}, "[4]": {"conditions": "0.01 lb/ac, 14 DAT, NIS 0.25% V/V"}, "[5]": {"conditions": "0.01 lb/ac, 28 DAT, NIS 0.25% V/V"}, "[6]": {"conditions": "0.01 lb/ac, 40 DAT, NIS 0.25% V/V"}, "[7]": {"conditions": "0.01 lb/ac, 55 DAT, NIS 0.25% V/V"}, "[8]": {"conditions": "0.02 lb/ac, 6 DAT, NIS 0.25% V/V"}, "[9]": {"conditions": "0.02 lb/ac, 14 DAT, NIS 0.25% V/V"}, "[10]": {"conditions": "0.02 lb/ac, 28 DAT, NIS 0.25% V/V"}, "[11]": {"conditions": "0.02 lb/ac, 40 DAT, NIS 0.25% V/V"}, "[12]": {"conditions": "0.02 lb/ac, 55 DAT, NIS 0.25% V/V"}, "[13]": {"conditions": "0.04 lb/ac, 6 DAT, NIS 0.25% V/V"}, "[14]": {"conditions": "0.04 lb/ac, 14 DAT, NIS 0.25% V/V"}, "[15]": {"conditions": "0.04 lb/ac, 28 DAT, NIS 0.25% V/V"}, "[16]": {"conditions": "0.04 lb/ac, 40 DAT, NIS 0.25% V/V"}, "[17]": {"conditions": "0.04 lb/ac, 55 DAT, NIS 0.25% V/V"}}, "data": [{"compound": "COC(=O)c1ccccc1S(=O)(=O)NC(=O)Nc1nc(C)nc(OC)n1", "note": "[Metsulfuron Methyl, methyl 2-[[[[(4-methoxy-6-methyl-1,3,5-triazin-2-yl)amino]carbonyl]amino]sulfonyl]benzoate]", "values": [{"measurement": "% Control of Weeds, Ground Ivy Control", "setting": "[1]; [3]", "value": 5, "unit": "%"}, {"measurement": "% Control of Weeds, Ground Ivy Control", "setting": "[1]; [4]", "value": 33, "unit": "%"}, {"measurement": "% Control of Weeds, Ground Ivy Control", "setting": "[1]; [5]", "value": 83, "unit": "%"}, {"measurement": "% Control of Weeds, Ground Ivy Control", "setting": "[1]; [6]", "value": 96, "unit": "%"}, {"measurement": "% Control of Weeds, Ground Ivy Control", "setting": "[1]; [7]", "value": 97, "unit": "%"}, {"measurement": "% Control of Weeds, Ground Ivy Control", "setting": "[1]; [8]", "value": 0, "unit": "%"}, {"measurement": "% Control of Weeds, Ground Ivy Control", "setting": "[1]; [9]", "value": 20, "unit": "%"}, {"measurement": "% Control of Weeds, Ground Ivy Control", "setting": "[1]; [10]", "value": 75, "unit": "%"}, {"measurement": "% Control of Weeds, Ground Ivy Control", "setting": "[1]; [11]", "value": 94, "unit": "%"}, {"measurement": "% Control of Weeds, Ground Ivy Control", "setting": "[1]; [12]", "value": 100, "unit": "%"}, {"measurement": "% Control of Weeds, Ground Ivy Control", "setting": "[1]; [13]", "value": 0, "unit": "%"}, {"measurement": "% Control of Weeds, Ground Ivy Control", "setting": "[1]; [14]", "value": 36.7, "unit": "%"}, {"measurement": "% Control of Weeds, Ground Ivy Control", "setting": "[1]; [15]", "value": 90, "unit": "%"}, {"measurement": "% Control of Weeds, Ground Ivy Control", "setting": "[1]; [16]", "value": 97, "unit": "%"}, {"measurement": "% Control of Weeds, Ground Ivy Control", "setting": "[1]; [17]", "value": 100, "unit": "%"}, {"measurement": "% Control of Weeds, Wild Violet Control", "setting": "[2]; [3]", "value": 0, "unit": "%"}, {"measurement": "% Control of Weeds, Wild Violet Control", "setting": "[2]; [4]", "value": 0, "unit": "%"}, {"measurement": "% Control of Weeds, Wild Violet Control", "setting": "[2]; [5]", "value": 58.3, "unit": "%"}, {"measurement": "% Control of Weeds, Wild Violet Control", "setting": "[2]; [6]", "value": 63.3, "unit": "%"}, {"measurement": "% Control of Weeds, Wild Violet Control", "setting": "[2]; [7]", "value": 66.7, "unit": "%"}, {"measurement": "% Control of Weeds, Wild Violet Control", "setting": "[2]; [8]", "value": 0, "unit": "%"}, {"measurement": "% Control of Weeds, Wild Violet Control", "setting": "[2]; [9]", "value": 3.3, "unit": "%"}, {"measurement": "% Control of Weeds, Wild Violet Control", "setting": "[2]; [10]", "value": 50, "unit": "%"}, {"measurement": "% Control of Weeds, Wild Violet Control", "setting": "[2]; [11]", "value": 75, "unit": "%"}, {"measurement": "% Control of Weeds, Wild Violet Control", "setting": "[2]; [12]", "value": 86.7, "unit": "%"}, {"measurement": "% Control of Weeds, Wild Violet Control", "setting": "[2]; [13]", "value": 0, "unit": "%"}, {"measurement": "% Control of Weeds, Wild Violet Control", "setting": "[2]; [14]", "value": 0, "unit": "%"}, {"measurement": "% Control of Weeds, Wild Violet Control", "setting": "[2]; [15]", "value": 51.7, "unit": "%"}, {"measurement": "% Control of Weeds, Wild Violet Control", "setting": "[2]; [16]", "value": 66.7, "unit": "%"}, {"measurement": "% Control of Weeds, Wild Violet Control", "setting": "[2]; [17]", "value": 66.7, "unit": "%"}]}, {"compound": "Cc1nn(-c2cc(NS(C)(=O)=O)c(Cl)cc2Cl)c(=O)n1C(F)F", "note": "[Sulfentrazone, N-[2,4-dichloro-5-[4-difluoromethyl-4,5-dihydro-3-methyl-5-oxo-1H-1,2,4-triazol-1-yl]phenyl]methanesulfonamide]", "values": [{"measurement": "% Control of Weeds, Ground Ivy Control", "setting": "[1]; 0.125 lb/ac, 6 DAT", "value": 11.7, "unit": "%"}, {"measurement": "% Control of Weeds, Ground Ivy Control", "setting": "[1]; 0.125 lb/ac, 14 DAT", "value": 10, "unit": "%"}, {"measurement": "% Control of Weeds, Ground Ivy Control", "setting": "[1]; 0.125 lb/ac, 28 DAT", "value": 0, "unit": "%"}, {"measurement": "% Control of Weeds, Ground Ivy Control", "setting": "[1]; 0.125 lb/ac, 40 DAT", "value": 0, "unit": "%"}, {"measurement": "% Control of Weeds, Ground Ivy Control", "setting": "[1]; 0.125 lb/ac, 55 DAT", "value": 0, "unit": "%"}, {"measurement": "% Control of Weeds, Ground Ivy Control", "setting": "[1]; 0.25 lb/ac, 6 DAT", "value": 10, "unit": "%"}, {"measurement": "% Control of Weeds, Ground Ivy Control", "setting": "[1]; 0.25 lb/ac, 14 DAT", "value": 13.3, "unit": "%"}, {"measurement": "% Control of Weeds, Ground Ivy Control", "setting": "[1]; 0.25 lb/ac, 28 DAT", "value": 0, "unit": "%"}, {"measurement": "% Control of Weeds, Ground Ivy Control", "setting": "[1]; 0.25 lb/ac, 40 DAT", "value": 0, "unit": "%"}, {"measurement": "% Control of Weeds, Ground Ivy Control", "setting": "[1]; 0.25 lb/ac, 55 DAT", "value": 0, "unit": "%"}, {"measurement": "% Control of Weeds, Ground Ivy Control", "setting": "[1]; 0.38 lb/ac, 6 DAT", "value": 11.7, "unit": "%"}, {"measurement": "% Control of Weeds, Ground Ivy Control", "setting": "[1]; 0.38 lb/ac, 14 DAT", "value": 6.7, "unit": "%"}, {"measurement": "% Control of Weeds, Ground Ivy Control", "setting": "[1]; 0.38 lb/ac, 28 DAT", "value": 3.3, "unit": "%"}, {"measurement": "% Control of Weeds, Ground Ivy Control", "setting": "[1]; 0.38 lb/ac, 40 DAT", "value": 0, "unit": "%"}, {"measurement": "% Control of Weeds, Ground Ivy Control", "setting": "[1]; 0.38 lb/ac, 55 DAT", "value": 0, "unit": "%"}, {"measurement": "% Control of Weeds, Wild Violet Control", "setting": "[2]; 0.125 lb/ac, 6 DAT", "value": 5, "unit": "%"}, {"measurement": "% Control of Weeds, Wild Violet Control", "setting": "[2]; 0.125 lb/ac, 14 DAT", "value": 0, "unit": "%"}, {"measurement": "% Control of Weeds, Wild Violet Control", "setting": "[2]; 0.125 lb/ac, 28 DAT", "value": 0, "unit": "%"}, {"measurement": "% Control of Weeds, Wild Violet Control", "setting": "[2]; 0.125 lb/ac, 40 DAT", "value": 0, "unit": "%"}, {"measurement": "% Control of Weeds, Wild Violet Control", "setting": "[2]; 0.125 lb/ac, 55 DAT", "value": 0, "unit": "%"}, {"measurement": "% Control of Weeds, Wild Violet Control", "setting": "[2]; 0.25 lb/ac, 6 DAT", "value": 5, "unit": "%"}, {"measurement": "% Control of Weeds, Wild Violet Control", "setting": "[2]; 0.25 lb/ac, 14 DAT", "value": 0, "unit": "%"}, {"measurement": "% Control of Weeds, Wild Violet Control", "setting": "[2]; 0.25 lb/ac, 28 DAT", "value": 0, "unit": "%"}, {"measurement": "% Control of Weeds, Wild Violet Control", "setting": "[2]; 0.25 lb/ac, 40 DAT", "value": 0, "unit": "%"}, {"measurement": "% Control of Weeds, Wild Violet Control", "setting": "[2]; 0.25 lb/ac, 55 DAT", "value": 0, "unit": "%"}, {"measurement": "% Control of Weeds, Wild Violet Control", "setting": "[2]; 0.38 lb/ac, 6 DAT", "value": 1.7, "unit": "%"}, {"measurement": "% Control of Weeds, Wild Violet Control", "setting": "[2]; 0.38 lb/ac, 14 DAT", "value": 0, "unit": "%"}, {"measurement": "% Control of Weeds, Wild Violet Control", "setting": "[2]; 0.38 lb/ac, 28 DAT", "value": 10, "unit": "%"}, {"measurement": "% Control of Weeds, Wild Violet Control", "setting": "[2]; 0.38 lb/ac, 40 DAT", "value": 0, "unit": "%"}, {"measurement": "% Control of Weeds, Wild Violet Control", "setting": "[2]; 0.38 lb/ac, 55 DAT", "value": 23.3, "unit": "%"}]}]}
